Reference: US12605396B2, “Methods of treating mastitis with an orthosomycin antimicrobial compound” (Intervet Inc., priority 2020, dated 2026)
In brackets after ≈: the same amount, converted by molar mass.

How the values were obtained:
[1] = system: mastitis-causing pathogens; experiment: Antimicrobial activity against mastitis-causing pathogens (overall statement); type: cell-based; conditions: broth-dilution assay and milk
Protocol: (§1) Minimal inhibitory concentrations (MIC) were determined in bacteriological broth according to Clinical and Laboratory Standard Institute (CLSI) guideline VET01-A4 [1]. The MIC results were interpreted according to the CLSI document VET01-S3 [2].
(§2) For MIC determination in milk, the in vitro activity was determined by measuring the minimum inhibitory concentrations (MIC) according to CLSI document VET01-A4 [1] using full cream UHT milk as test medium. About 2 h before the end of the incubation 10 μL of alamar Blue® was added to each well of the microdilution trays, resulting in a final concentration of 10% of alamar Blue®. Blue color of the medium indicated no living cells (no bacterial growth) red/pink to white color of the medium indicated living cells (bacterial growth). The MIC results were interpreted according to the CLSI document VET01-S3 [2].

[2] = system: Strep. dysgalactiae; experiment: MIC in bacteriological broth (CLSI VET01-A4); type: cell-based, Streptococcus dysgalactiae
Protocol: as §1

[3] = system: coa-neg Staph.; experiment: MIC in bacteriological broth (CLSI VET01-A4); type: cell-based, coagulase-negative staphylococci
Protocol: as §1

[4] = system: S. aureus; experiment: MIC in full cream UHT milk with alamar Blue; type: cell-based, Staphylococcus aureus
Protocol: as §2

[5] = system: Strep. agalactiae; experiment: MIC in bacteriological broth (CLSI VET01-A4); type: cell-based, Streptococcus agalactiae
Protocol: as §1

[6] = system: Streptococcus uberis; experiment: Experimental mastitis infection model in lactating cows; type: in vivo; conditions: oily suspension 200 mg/quarter intramammary, three consecutive times after milking, 21 days observation, FIG. 1
Protocol: In short, the hind quarters of 10 healthy cows were infected with Streptococcus uberis by intramammary application of 100 bacteria per quarter. At appearance of clinical signs of the challenged quarters (abnormal milk appearance, swollen/hard quarter, pain on palpation) one hind quarter of each cow was treated with an oily suspension of avilamycin at a dose of 200 mg/quarter at three consecutive times after milking. Furthermore, the neighboring infected hint quarter showing clinical signs was mock treated with formulation vehicle at the identical dose volume and schedule. Milk samples were analyzed for S. uberis over a period of 21 days.

[7] = system: S. uberis; experiment: MIC in bacteriological broth (CLSI VET01-A4); type: cell-based, Streptococcus uberis
Protocol: as §1

[8] = system: Truep. pyogenes; experiment: MIC in bacteriological broth (CLSI VET01-A4); type: cell-based, Trueperella pyogenes
Protocol: as §1

[9] = system: S. aureus; experiment: MIC in bacteriological broth (CLSI VET01-A4); type: cell-based, Staphylococcus aureus
Protocol: as §1

[10] = bacteriological broth, 29 Strep. dysgalactiae isolates tested
[11] = broth, of 29 Strep. dysgalactiae isolates
[12] = bacteriological broth, 30 coa-neg Staph. isolates tested
[13] = broth, of 30 coa-neg Staph. isolates
[14] = bacteriological broth, 30 Strep. agalactiae isolates tested
[15] = broth, of 30 Strep. agalactiae isolates
[16] = bacteriological broth, 30 S. uberis isolates tested
[17] = broth, of 30 S. uberis isolates
[18] = bacteriological broth, 30 Truep. pyogenes isolates tested
[19] = broth, of 30 Truep. pyogenes isolates
[20] = bacteriological broth, 50 S. aureus isolates tested
[21] = broth, of 50 S. aureus isolates

For `COC[C@H]1O[C@@H](OC2OC[C@@H]3O[C@]4(O[C@H]3[C@H]2OC(=O)C(C)C)O[C@H](C)[C@@](O)(C(C)=O)[C@@H]2OCO[C@H]24)[C@@H](OC)[C@@H](O)[C@@H]1O[C@@H]1O[C@H](C)[C@H](OC)[C@H](O[C@H]2C[C@@]3(C)OC4(C[C@@H](O)[C@H](O[C@H]5C[C@@H](O)[C@H](OC(=O)c6c(C)c(Cl)c(O)c(Cl)c6OC)[C@@H](C)O5)[C@@H](C)O4)O[C@@H]3[C@@H](C)O2)[C@H]1O` (some centres unmarked) [avilamycin], the “Antimicrobial activity against mastitis-causing pathogens” value [1] was “Good antimicrobial activity”, the MIC50 [2, 10] was 0.125 µg/mL (≈ 0.089 µM) and the MIC90 [2, 10] was 0.25 µg/mL (≈ 0.178 µM). For the same compound, the “Maximum MIC” value [2, 10] was 0.25 µg/mL, the “Minimum MIC” value [2, 10] was ≤0.063 µg/mL and the “Number of isolates with MIC 0.125 μg/mL” value [2, 11] was 23. The “Number of isolates with MIC 0.25 μg/mL” value [2, 11] was 5, the “Number of isolates with MIC ≤0.063 μg/mL” value [2, 11] was 1 and the MIC50 [3, 12] was 2 µg/mL (≈ 1.42 µM). The MIC90 [3, 12] was 4 µg/mL (≈ 2.85 µM), the “Maximum MIC” value [3, 12] was 32 µg/mL and the “Minimum MIC” value [3, 12] was 1 µg/mL. The “Number of isolates with MIC 1 μg/mL” value [3, 13] was 4, the “Number of isolates with MIC 2 μg/mL” value [3, 13] was 13 and the “Number of isolates with MIC 4 μg/mL” value [3, 13] was 11. The “Number of isolates with MIC 8 μg/mL” value [3, 13] was 1, the “Number of isolates with MIC 32 μg/mL” value [3, 13] was 1 and the “Activity in milk” value [4] was “maintained its activity”. The “MIC90 against S. aureus compared with MIC90 of penicillin G” value [4] was “significantly lower”, the “Distribution of MIC values: isolates with MIC 0.125 μg/ml” value ([4]; S. aureus (n = 20)) was 0 and the “Distribution of MIC values: isolates with MIC 0.25 μg/ml” value ([4]; S. aureus (n = 20)) was 0. For the same compound, the “Distribution of MIC values: isolates with MIC 0.5 μg/ml” value ([4]; S. aureus (n = 20)) was 1, the “Distribution of MIC values: isolates with MIC 1 μg/ml” value ([4]; S. aureus (n = 20)) was 1 and the “Distribution of MIC values: isolates with MIC 2 μg/ml” value ([4]; S. aureus (n = 20)) was 1. For the same compound, the “Distribution of MIC values: isolates with MIC 4 μg/ml” value ([4]; S. aureus (n = 20)) was 16, the “Distribution of MIC values: isolates with MIC 8 μg/ml” value ([4]; S. aureus (n = 20)) was 1 and the “Distribution of MIC values: isolates with MIC 16 μg/ml” value ([4]; S. aureus (n = 20)) was 0. The “Distribution of MIC values: isolates with MIC 32 μg/ml” value ([4]; S. aureus (n = 20)) was 0, the “Distribution of MIC values: isolates with MIC 64 μg/ml” value ([4]; S. aureus (n = 20)) was 0 and the “Distribution of MIC values: isolates with MIC >64 μg/ml” value ([4]; S. aureus (n = 20)) was 0. For the same compound, the “Distribution of MIC values: isolates with MIC ≤0.063 μg/ml” value ([4]; S. aureus (n = 20)) was 0, the MIC90 ([4]; S. aureus (n = 20)) was 4 µg/mL (≈ 2.85 µM) and the MIC50 [5, 14] was ≤0.063 µg/mL. The MIC90 [5, 14] was 0.125 µg/mL (≈ 0.089 µM), the “Maximum MIC” value [5, 14] was 0.125 µg/mL and the “Minimum MIC” value [5, 14] was ≤0.063 µg/mL. For the same compound, the “Number of isolates with MIC 0.125 μg/mL” value [5, 15] was 13, the “Number of isolates with MIC ≤0.063 μg/mL” value [5, 15] was 17 and the “Proportion of quarters free of S. uberis compared to quarters treated with vehicle” value [6] was “substantially higher”. For the same compound, the MIC50 [7, 16] was 0.5 µg/mL (≈ 0.356 µM), the MIC90 [7, 16] was 0.5 µg/mL (≈ 0.356 µM) and the “Maximum MIC” value [7, 16] was 0.5 µg/mL. The “Minimum MIC” value [7, 16] was 0.125 µg/mL, the “Number of isolates with MIC 0.125 μg/mL” value [7, 17] was 1 and the “Number of isolates with MIC 0.25 μg/mL” value [7, 17] was 12. The “Number of isolates with MIC 0.5 μg/mL” value [7, 17] was 17, the MIC50 [8, 18] was ≤0.063 µg/mL and the MIC90 [8, 18] was ≤0.063 µg/mL. For the same compound, the “Maximum MIC” value [8, 18] was 0.125 µg/mL, the “Minimum MIC” value [8, 18] was ≤0.063 µg/mL and the “Number of isolates with MIC 0.125 μg/mL” value [8, 19] was 1. For the same compound, the “Number of isolates with MIC ≤0.063 μg/mL” value [8, 19] was 29, the MIC50 [9, 20] was 2 µg/mL (≈ 1.42 µM) and the MIC90 [9, 20] was 4 µg/mL (≈ 2.85 µM). The “Maximum MIC” value [9, 20] was 4 µg/mL, the “Minimum MIC” value [9, 20] was 1 µg/mL and the “Number of isolates with MIC 1 μg/mL” value [9, 21] was 5. The “Number of isolates with MIC 2 μg/mL” value [9, 21] was 19 and the “Number of isolates with MIC 4 μg/mL” value [9, 21] was 26.
